From publication PMC10046037, “GABRG2 Variants Associated with Febrile Seizures” (Biomolecules, 2023)

Molecular target: T1, α1β3γ2 GABAA receptor, γ2S325L variant (Homo sapiens, UniProt P14867+P18507+P28472, S325L)
T1 construct: expressed in transfected cells; host or cells: HEK293T
T1 sequence (P14867 28-456): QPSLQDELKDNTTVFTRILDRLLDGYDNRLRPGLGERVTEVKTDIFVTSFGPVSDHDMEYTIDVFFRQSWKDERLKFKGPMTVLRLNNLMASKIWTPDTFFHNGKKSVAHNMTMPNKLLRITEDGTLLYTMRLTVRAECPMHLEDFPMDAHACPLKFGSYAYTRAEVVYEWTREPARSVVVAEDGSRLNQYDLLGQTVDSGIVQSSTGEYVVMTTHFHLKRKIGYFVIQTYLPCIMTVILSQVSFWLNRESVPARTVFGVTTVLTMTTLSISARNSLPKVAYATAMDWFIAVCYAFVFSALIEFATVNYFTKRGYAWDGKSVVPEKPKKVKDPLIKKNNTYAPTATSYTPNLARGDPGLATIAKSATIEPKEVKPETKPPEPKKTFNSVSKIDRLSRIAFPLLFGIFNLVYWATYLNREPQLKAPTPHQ
T1 sequence (P28472 26-473 isoform P28472-2): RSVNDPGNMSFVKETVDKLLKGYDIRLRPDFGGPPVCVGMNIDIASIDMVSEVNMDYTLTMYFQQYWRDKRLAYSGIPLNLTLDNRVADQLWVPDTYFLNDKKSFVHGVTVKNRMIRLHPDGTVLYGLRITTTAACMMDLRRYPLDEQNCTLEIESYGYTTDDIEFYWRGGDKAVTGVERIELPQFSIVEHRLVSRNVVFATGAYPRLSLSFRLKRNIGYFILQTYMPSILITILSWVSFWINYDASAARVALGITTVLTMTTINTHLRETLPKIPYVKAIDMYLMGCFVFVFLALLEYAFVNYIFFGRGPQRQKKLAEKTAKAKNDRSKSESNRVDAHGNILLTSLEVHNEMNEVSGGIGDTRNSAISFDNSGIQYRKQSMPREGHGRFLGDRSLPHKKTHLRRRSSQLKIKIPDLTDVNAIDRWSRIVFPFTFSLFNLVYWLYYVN
T1 sequence (P18507 40-475 S325L): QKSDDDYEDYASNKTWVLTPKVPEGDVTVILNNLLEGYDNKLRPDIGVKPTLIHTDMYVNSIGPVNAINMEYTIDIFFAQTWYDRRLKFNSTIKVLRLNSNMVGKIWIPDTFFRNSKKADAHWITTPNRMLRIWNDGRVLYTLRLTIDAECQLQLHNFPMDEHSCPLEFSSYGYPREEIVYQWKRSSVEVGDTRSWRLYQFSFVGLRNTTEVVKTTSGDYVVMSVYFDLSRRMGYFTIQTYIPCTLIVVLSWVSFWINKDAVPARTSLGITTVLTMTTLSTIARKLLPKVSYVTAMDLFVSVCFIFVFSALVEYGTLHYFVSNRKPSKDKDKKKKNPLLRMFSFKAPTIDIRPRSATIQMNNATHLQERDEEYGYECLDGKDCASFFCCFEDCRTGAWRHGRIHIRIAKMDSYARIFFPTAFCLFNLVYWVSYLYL
Test: Automated patch clamp of GABA-elicited currents (SyncroPatch 384PE), γ2S325L
Type: cell-based
Settings: mean
Protocol: The coding sequences of human α1 (GABRA1, NM_000806), β3 (GABRB3, NM_021912), and γ2 (GABRG2, NM_198904.2) GABAAR subunits were subcloned into the pcDNA3.1 expression vectors (Invitrogen, Waltham, MA, USA).
HEK293T cells (ATCC, CRL-11268) were cultured at 37 °C in a humidified 5% CO2 incubator and maintained in Dulbecco’s modified Eagle’s medium (Invitrogen) supplemented with 10% fetal bovine serum (Life Technologies, Carlsbad, CA, USA), and 100 IU/mL of penicillin/streptomycin (Life Technologies). For the expression experiments, 4 × 10^5 cells were transfected using polyethylenimine (PEI) reagent (40 kD, Polysciences, Warrington, PA, USA) at a DNA: to transfection reagent ratio of 1:2.5 and harvested 36 h after transfection. To express WT and variant α1β3γ2 receptors, a total of 3 µg of α1, β3, and γ2 (WT or mutant) subunit cDNAs were transfected at a ratio of 1:1:1 into 60 mm culture dishes. For the mock-transfected condition, an empty pcDNA3.1 vector was added for a final cDNA transfection amount of 3 μg. For the electrophysiology experiments, 2.5 × 10^5 cells were plated in 100 mm culture dishes and transfected after 24 h with 3 μg of cDNA of each α1, β3, γ2 (wild-type or mutant) subunit, using X-tremeGENE HP DNA transfection Reagent (Roche Diagnostics, Basel, Switzerland), following the manufacturer’s protocol. Recordings were obtained forty-eight hours after transfection.
Whole-cell patch clamp recordings were conducted according to the manufacturer’s standard procedure for the SyncroPatch 384 [31]. Whole-cell voltage-clamp recordings were performed at room temperature on HEK293T cells 48 h after transfection with GABAAR subunits, using the SyncroPatch 384PE (Nanion Technologies, Munich, Germany). Cells, at a concentration of 400,000 cells/mL, were harvested in suspension in external solution containing 140 mM of NaCl, 2 mM of CaCl2, 4 mM of KCl, 1 mM of MgCl2, 5 mM of glucose, and 10 mM of HEPES (pH 7.4 with NaOH, 298 mOsm). The cells were loaded in a multi-hole (4 holes per well) 384-well Nanion patch clamp (NPC) chip with a thick borosilicate glass bottom and an average resistance pore size of […]. Built-in electrophysiological protocols were used, and the data were digitized using PatchControl 384 (Nanion Technologies) application. Using PatchControl 384, electrophysiological parameters, such as seal resistance, capacitance, and series resistance, were determined for each well after the application of a test pulse, and subsequently monitored over time. […] The currents were normalized to the maximal response of each well, and the concentration–response curves were calculated from single-point additions. The EC50 values for each variant or wild-type receptor were calculated across multiple wells for each experimental condition.

**Q.** NCCCC(=O)O [GABA, γ-aminobutyric acid] was tested. Which Deactivation (1 mM GABA for 5 ms, HEK293T, -80 mV) did it give?
**A.** 307.7 ms

**Q.** What about the “IMAX (maximal GABA-evoked peak current)” value (1 mM GABA for 5 ms, HEK293T) of the same compound?
**A.** 0.78 nA

**Q.** And the “IMAX variant/IMAX WT” value (1 mM GABA)?
**A.** 39.07%

**Q.** And the “Rise Time” value (10–90% rise time, 1 mM GABA for 5 ms, HEK293T)?
**A.** 68.01 ms
